Converted amounts (≈) assume the structure as drawn.
Assays:
Escherichia coli [1] = test: Adjuvant activity assessed as potentiation of tetracycline-induced antibacterial activity against Escherichia coli BW25113 at 0.5 times MIC after 16 to 18 hrs by checkerboard assay (reference value: 2 ng/ml); type: functional
Escherichia coli [2] = test: Adjuvant activity assessed as potentiation of chloramphenicol-induced antibacterial activity against Escherichia coli BW25113 at 0.5 times MIC after 16 to 18 hrs by checkerboard assay (reference value: 8 ng/ml); type: functional
Escherichia coli [3] = test: Induction of membrane permeabilization in Escherichia coli BW25113 at MIC after 15 mins by propidium iodide staining-based fluorescence microplate reader method relative to 50% ethanol; type: functional
Salmonella typhimurium [4] = test: Adjuvant activity assessed as potentiation of tetracycline-induced antibacterial activity against Salmonella typhimurium at 3.2 ug/ml after 16 to 18 hrs by checkerboard assay (reference value: 1 ug/ml); type: functional, Salmonella enterica subsp. enterica serovar Typhimurium; conditions: Salmonella enterica
Pseudomonas aeruginosa [5] = test: Adjuvant activity assessed as potentiation of tetracycline-induced antibacterial activity against Pseudomonas aeruginosa at 3.2 ug/ml after 16 to 18 hrs by checkerboard assay (reference value: 32 ug/ml); type: functional
Klebsiella pneumoniae [6] = test: Antibacterial activity against Klebsiella pneumoniae after 16 to 18 hrs by micro-dilution method; type: functional
Escherichia coli [7] = test: Antibacterial activity against Escherichia coli BW25113 after 16 to 18 hrs by micro-dilution method; type: functional
Escherichia coli [8] = test: Adjuvant activity assessed as potentiation of rifampicin-induced antibacterial activity against Escherichia coli BW25113 at 0.25 times MIC after 16 to 18 hrs by checkerboard assay (reference value: 8 ng/ml); type: functional
Vibrio cholerae = test: Antibacterial activity against Vibrio cholerae after 16 to 18 hrs by micro-dilution method; type: functional
Shigella boydii = test: Antibacterial activity against Shigella boydii after 16 to 18 hrs by micro-dilution method; type: functional
Escherichia coli [9] = test: Adjuvant activity assessed as potentiation of tetracycline-induced antibacterial activity against Escherichia coli BW25113 at 0.25 times MIC after 16 to 18 hrs by checkerboard assay (reference value: 2 ng/ml); type: functional
Salmonella typhimurium [10] = test: Antibacterial activity against Salmonella typhimurium after 16 to 18 hrs by micro-dilution method; type: functional, Salmonella enterica subsp. enterica serovar Typhimurium; conditions: Salmonella enterica
[11] = Cytotoxicity against HEK cells assessed as cell viability at 3.2 ug/ml after 24 hrs by CellTiter-Glo assay relative to control; type: toxicity, cell-based, HEK293; conditions: human, read-out: Activity
Acinetobacter baumannii [12] = test: Antibacterial activity against Acinetobacter baumannii after 16 to 18 hrs by micro-dilution method; type: functional
[13] = Cytotoxicity against HEK cells assessed as cell viability at 1.6 ug/ml after 24 hrs by CellTiter-Glo assay relative to control; type: toxicity, cell-based, HEK293; conditions: human, read-out: Activity
Escherichia coli [14] = test: Adjuvant activity assessed as potentiation of ciprofloxacin-induced antibacterial activity against Escherichia coli BW25113 at 0.25 times MIC after 16 to 18 hrs by checkerboard assay (reference value: 13 ng/ml); type: functional
Edwardsiella tarda = test: Antibacterial activity against Edwardsiella tarda after 16 to 18 hrs by micro-dilution method; type: functional
Escherichia coli [15] = test: Antibacterial activity against tolC-deficient Escherichia coli BW25113 after 16 to 18 hrs by micro-dilution method; type: functional
[16] = Cytotoxicity against HEK cells assessed as cell viability at 0.8 ug/ml after 24 hrs by CellTiter-Glo assay relative to control; type: toxicity, cell-based, HEK293; conditions: human, read-out: Activity
Pseudomonas aeruginosa [17] = test: Antibacterial activity against Pseudomonas aeruginosa after 16 to 18 hrs by micro-dilution method; type: functional
[18] = Cytotoxicity against HEK cells assessed as cell viability at 0.8 ug/ml after 48 hrs by CellTiter-Glo assay relative to control; type: toxicity, cell-based, HEK293; conditions: human, read-out: Activity
Bacillus subtilis = test: Antibacterial activity against Bacillus subtilis 168 after 16 to 18 hrs by micro-dilution method; type: functional; conditions: subsp. subtilis str. 168
[19] = Cytotoxicity against HEK cells assessed as cell viability at 3.2 ug/ml after 48 hrs by CellTiter-Glo assay relative to control; type: toxicity, cell-based, HEK293; conditions: human, read-out: Activity
Escherichia coli [20] = test: Adjuvant activity assessed as potentiation of chloramphenicol-induced antibacterial activity against Escherichia coli BW25113 at 0.25 times MIC after 16 to 18 hrs by checkerboard assay (reference value: 8 ng/ml); type: functional
Staphylococcus aureus [21] = test: Antibacterial activity against Staphylococcus aureus after 16 to 18 hrs by micro-dilution method; type: functional
Staphylococcus aureus [22] = test: Adjuvant activity assessed as potentiation of tetracycline-induced antibacterial activity against Staphylococcus aureus at 1.6 ug/ml after 16 to 18 hrs by checkerboard assay (reference value: 0.125 ug/ml); type: functional
Escherichia coli [23] = test: Adjuvant activity assessed as potentiation of ciprofloxacin-induced antibacterial activity against Escherichia coli BW25113 at 0.5 times MIC after 16 to 18 hrs by checkerboard assay (reference value: 13 ng/ml); type: functional
Morganella morganii = test: Antibacterial activity against Morganella morganii after 16 to 18 hrs by micro-dilution method; type: functional
Klebsiella aerogenes = test: Antibacterial activity against Enterobacter aerogenes after 16 to 18 hrs by micro-dilution method; type: functional
[24] = Cytotoxicity against HEK cells assessed as cell viability at 1.6 ug/ml after 48 hrs by CellTiter-Glo assay relative to control; type: toxicity, cell-based, HEK293; conditions: human, read-out: Activity
Acinetobacter baumannii [25] = test: Adjuvant activity assessed as potentiation of tetracycline-induced antibacterial activity against Acinetobacter baumannii at 3.2 ug/ml after 16 to 18 hrs by checkerboard assay (reference value: 1 ug/ml); type: functional
Klebsiella pneumoniae [26] = test: Adjuvant activity assessed as potentiation of tetracycline-induced antibacterial activity against Klebsiella pneumoniae at 3.2 ug/ml after 16 to 18 hrs by checkerboard assay (reference value: 2 ug/ml); type: functional
Escherichia coli [27] = test: Adjuvant activity assessed as potentiation of rifampicin-induced antibacterial activity against Escherichia coli BW25113 at 0.5 times MIC after 16 to 18 hrs by checkerboard assay (reference value: 8 ng/ml); type: functional
[28] = Cytotoxicity against HEK cells assessed as cell viability at 1.3 ug/ml after 48 hrs by CellTiter-Glo assay relative to control; type: toxicity, cell-based, HEK293; conditions: human, read-out: Activity
[29] = Cytotoxicity against HEK cells assessed as cell viability at 1.3 ug/ml after 24 hrs by CellTiter-Glo assay relative to control; type: toxicity, cell-based, HEK293; conditions: human, read-out: Activity
[30] = Cytotoxicity against HEK cells assessed as cell viability at 0.65 ug/ml after 48 hrs by CellTiter-Glo assay relative to control; type: toxicity, cell-based, HEK293; conditions: human, read-out: Activity
[31] = Cytotoxicity against HEK cells assessed as cell viability at 2.6 ug/ml after 24 hrs by CellTiter-Glo assay relative to control; type: toxicity, cell-based, HEK293; conditions: human, read-out: Activity
[32] = Cytotoxicity against HEK cells assessed as cell viability at 0.65 ug/ml after 24 hrs by CellTiter-Glo assay relative to control; type: toxicity, cell-based, HEK293; conditions: human, read-out: Activity
[33] = Cytotoxicity against HEK cells assessed as cell viability at 2.6 ug/ml after 48 hrs by CellTiter-Glo assay relative to control; type: toxicity, cell-based, HEK293; conditions: human, read-out: Activity

Q: What does the source list for `CCCCCCCCCCOc1ccc2[nH]cc(CCN)c2c1.Cl`?
A: MIC (Escherichia coli [1]): 0.00025 µg/mL; MIC (Escherichia coli [2]): 0.002 µg/mL; Activity (Escherichia coli [3]): 83%; MIC (Salmonella typhimurium [4]): 0.016 µg/mL; MIC (Pseudomonas aeruginosa [5]): 16 µg/mL; MIC (Klebsiella pneumoniae [6]): 6.3 µg/mL; MIC (Escherichia coli [7]): 6.3 µg/mL; MIC (Escherichia coli [8]): 0.008 µg/mL; MIC (Vibrio cholerae): 6.3 µg/mL; MIC (Shigella boydii): 3.2 µg/mL; MIC (Escherichia coli [9]): 0.001 µg/mL; MIC (Salmonella typhimurium [10]): 6.3 µg/mL; viability at 24 h, 3.2 ug/ml [11]: 13.4%; MIC (Acinetobacter baumannii [12]): 6.3 µg/mL; viability at 24 h, 1.6 ug/ml [13]: 29.6%; MIC (Escherichia coli [14]): 0.013 µg/mL; MIC (Edwardsiella tarda): 25 µg/mL; MIC (Escherichia coli [15]): 3.2 µg/mL; viability at 24 h, 0.8 ug/ml [16]: 59.7%; MIC (Pseudomonas aeruginosa [17]): > 101 µg/mL; viability at 48 h, 0.8 ug/ml [18]: 39.1%; MIC (Bacillus subtilis): 1.6 µg/mL; viability at 48 h, 3.2 ug/ml [19]: 2%; MIC (Escherichia coli [20]): 0.004 µg/mL; MIC (Staphylococcus aureus [21]): 3.2 to 6.3 µg/mL; MIC (Staphylococcus aureus [22]): 0.001 µg/mL; MIC (Escherichia coli [23]): 0.013 µg/mL; MIC (Morganella morganii): 101 µg/mL; MIC (Klebsiella aerogenes): 13 µg/mL; viability at 48 h, 1.6 ug/ml [24]: 17%; MIC (Acinetobacter baumannii [25]): 0.25 µg/mL; MIC (Klebsiella pneumoniae [26]): 2 µg/mL; MIC (Escherichia coli [27]): 0.001 µg/mL

Q: With `CCCCCCCCCOc1cccc(CCN)c1` as the molecule, how does the MIC (Escherichia coli [1]) read?
A: 0.001 µg/mL

Q: What about the MIC (Escherichia coli [2]) of the same molecule?
A: 0.004 µg/mL

Q: And the viability at 48 h, 1.3 ug/ml [28]?
A: 31%

Q: And the viability at 24 h, 1.3 ug/ml [29]?
A: 60.5%

Q: And the MIC (Klebsiella pneumoniae [6])?
A: 5.3 µg/mL (≈ 20.1 µM)

Q: What about the MIC (Escherichia coli [7]) of the same molecule?
A: 5.3 µg/mL (≈ 20.1 µM)

Q: What about the MIC (Escherichia coli [8]) of the same molecule?
A: 0.004 µg/mL

Q: And the MIC (Vibrio cholerae)?
A: 5.3 µg/mL (≈ 20.1 µM)

Q: What about the MIC (Shigella boydii) of the same molecule?
A: 5.3 µg/mL (≈ 20.1 µM)

Q: And the MIC (Escherichia coli [9])?
A: 0.002 µg/mL

Q: What about the MIC (Salmonella typhimurium [10]) of the same molecule?
A: 5.3 µg/mL (≈ 20.1 µM)

Q: What about the MIC (Acinetobacter baumannii [12]) of the same molecule?
A: 5.3 µg/mL (≈ 20.1 µM)

Q: And the MIC (Escherichia coli [14])?
A: 0.025 µg/mL

Q: What about the MIC (Edwardsiella tarda) of the same molecule?
A: 5.3 µg/mL (≈ 20.1 µM)

Q: And the MIC (Escherichia coli [15])?
A: 2.6 µg/mL (≈ 9.87 µM)

Q: What about the MIC (Pseudomonas aeruginosa [17]) of the same molecule?
A: 21 µg/mL (≈ 79.7 µM)

Q: And the viability at 48 h, 0.65 ug/ml [30]?
A: 58.1%

Q: And the MIC (Bacillus subtilis)?
A: 0.66 µg/mL (≈ 2.51 µM)

Q: And the viability at 24 h, 2.6 ug/ml [31]?
A: 3.4%

Q: What about the MIC (Escherichia coli [20]) of the same molecule?
A: 0.008 µg/mL

Q: What about the MIC (Staphylococcus aureus [21]) of the same molecule?
A: 5.3 µg/mL (≈ 20.1 µM)

Q: And the MIC (Escherichia coli [23])?
A: 0.025 µg/mL

Q: And the MIC (Morganella morganii)?
A: 11 µg/mL (≈ 41.8 µM)

Q: And the MIC (Klebsiella aerogenes)?
A: 5.3 µg/mL (≈ 20.1 µM)

Q: What about the viability at 24 h, 0.65 ug/ml [32] of the same molecule?
A: 72.7%

Q: And the viability at 48 h, 2.6 ug/ml [33]?
A: 1.8%

Q: And the MIC (Escherichia coli [27])?
A: 0.002 µg/mL

From ChEMBL document CHEMBL3864146, “5-Alkyloxytryptamines are membrane-targeting, broad-spectrum antibiotics” (Bioorg Med Chem Lett, 2016)
